Patent US9771340B2, “2-aminothiazole derivatives and methods of preparing and using the same” (Huazhong University of Science & Technology, priority 2011, dated 2017)

Key:
[1] = biological target: T1, PARP-1 (Homo sapiens, UniProt P09874); settings: within a concentration of between 2 M and 10 mM (so in the source); positive control; cited from earlier work
T1 construct: purchased R&D 4677-096-K

[2] = system: SH-SY5Y cells; test: Protection against cobalt chloride-induced hypoxic injury, MTT method and microscope; type: cell-based, human; settings: cobalt chloride 600 μM/L for 24 h, FIG. 4, FIG. 6
Experimental: Dopaminergic neuroblastoma tumor cells SH-SY5Y from human body were employed as experiment cells. Cobalt chloride having a concentration of 600 μM/L was used to treat SH-SY5Y cells for 24 h. […] It was known from the results that the aminothiazole derivatives have good protection on the cell against hypoxic injuries caused by cobalt chloride. Observed under the microscope, cells after being damaged (FIG. 5) had unclear edges, and the number of the cells was decreased. […] The growth of the cells was good.

[3] = system: SH-SY5Y cells; test: Protection against neuronal apoptosis induced by hydrogen peroxide, MTT method; type: cell-based, human; settings: SH-SY5Y cells damaged by H2O2 1000 μM/L for 12 h; concentration of 1 μM
Experimental: Dopaminergic neuroblastoma tumor cells SH-SY5Y from human body were employed as experiment cells. H2O2 having a concentration of 1000 μM/L was used to treat SH-SY5Y cells for 12 h. Cell viability was approximately 50%, and a hydrogen peroxide damage model was determined MTT method was used to test the protection of TJ-M201018 (1), TJ-M201005 (2), TJ-M201041 (3), TJ-M201021 (4), and TJ-M201064 (5) on the cells damaged by hydrogen peroxide; results were shown in FIG. 3.

[4] = system: CD80 in RAW264.7 cells; settings: pre-incubated 2 h, then stimulus 12 h
Experimental: 4. Flow antibodies FITC-labeled anti-CD80, CD86 were added for testing.
Raw264.7: 48-well plate, cells number of […]. Each well was added with 1 mL of culture system. Different concentrations of TJ-M201021 were added, and cells were pre-incubated for 2 h. CPG was then added. A final concentration was 40 ug/mL. Cells were incubated for 12 h at a temperature of 37° C. in an incubator filled with CO2. Flow antibodies FITC-labeled anti-CD80 and CD86 were added for testing.

T1 sequence (P09874 whole entry): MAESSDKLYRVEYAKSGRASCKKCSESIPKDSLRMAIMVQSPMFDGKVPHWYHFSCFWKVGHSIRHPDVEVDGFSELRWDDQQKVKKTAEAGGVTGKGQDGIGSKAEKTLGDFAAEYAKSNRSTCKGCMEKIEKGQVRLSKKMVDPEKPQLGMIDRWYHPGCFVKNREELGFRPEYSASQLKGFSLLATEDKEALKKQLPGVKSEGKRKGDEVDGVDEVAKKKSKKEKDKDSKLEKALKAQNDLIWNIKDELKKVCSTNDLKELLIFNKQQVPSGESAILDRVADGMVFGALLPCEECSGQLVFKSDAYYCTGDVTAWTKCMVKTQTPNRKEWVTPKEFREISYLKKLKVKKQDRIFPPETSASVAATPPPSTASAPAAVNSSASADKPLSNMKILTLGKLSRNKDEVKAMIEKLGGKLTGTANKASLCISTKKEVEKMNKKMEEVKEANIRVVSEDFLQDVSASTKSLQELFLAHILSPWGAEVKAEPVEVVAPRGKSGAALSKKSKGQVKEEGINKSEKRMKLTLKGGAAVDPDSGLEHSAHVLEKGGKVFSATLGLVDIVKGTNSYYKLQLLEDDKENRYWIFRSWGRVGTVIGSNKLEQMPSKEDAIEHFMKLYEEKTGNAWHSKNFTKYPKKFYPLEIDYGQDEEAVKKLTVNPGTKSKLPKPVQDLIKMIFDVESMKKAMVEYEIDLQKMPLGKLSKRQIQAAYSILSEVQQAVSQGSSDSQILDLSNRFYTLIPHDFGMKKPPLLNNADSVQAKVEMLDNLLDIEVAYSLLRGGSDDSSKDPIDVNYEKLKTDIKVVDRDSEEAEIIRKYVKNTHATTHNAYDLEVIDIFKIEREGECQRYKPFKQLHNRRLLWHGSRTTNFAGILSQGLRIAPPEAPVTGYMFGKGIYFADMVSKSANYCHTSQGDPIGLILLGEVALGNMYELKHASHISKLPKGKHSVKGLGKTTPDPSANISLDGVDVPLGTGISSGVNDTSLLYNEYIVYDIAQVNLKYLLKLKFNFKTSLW

Structure (SMILES)	inhibition effect on the PARP-1 [1]	protection on the cell against hypoxic injuries caused by cobalt chloride [2]	cell viability (FIG. 3: increase rate of the cell viability) [3] [%]	increase of the costimulatory molecules CD80 caused by TLR stimuli (LPS, CpG) [4]
NC(=O)c1cccc(N)c1 [3-AB]	had an inhibition effect on the PARP-1			
COc1ccc(N2CCN(CCC(=O)Nc3nc(-c4ccccc4)cs3)CC2)cc1 [TJ-M201021]		a large number of cells existed and had clear edges	30	inhibited the increase of the costimulatory molecules CD80
